The MIC is the lowest concentration that inhibits growth of the organism.

Results on 37 compounds are retold here after ChEMBL document CHEMBL5108019, “Discovery of a novel Pleuromutilin derivative as anti-IPF lead compound via high-throughput assay” (Eur J Med Chem, 2022).

For test [1], the target named is Transforming growth factor beta-1 proprotein/Mothers against decapentaplegic homolog 3 (Mus musculus) (UniProt P04202+Q8BUN5). Kind of test: Inhibition of TGF-beta1/Smad3 signalling in TGF-beta1 treated mouse NIH3T3 cells transfected with (CAGA)12-Lux reporter gene assessed as suppressive ratio at 10 uM incubated for 18 hrs by luciferase based analysis relative to control. Type of test: cell-based. Details: scale not given: the % may be the effect or the level left. A general note: In a reporter assay the amount or activity of a reporter protein is the signal.
Transforming growth factor beta-1 proprotein/Mothers against decapentaplegic homolog 3 (Mus musculus), sequence (P04202 279-390 limits assumed): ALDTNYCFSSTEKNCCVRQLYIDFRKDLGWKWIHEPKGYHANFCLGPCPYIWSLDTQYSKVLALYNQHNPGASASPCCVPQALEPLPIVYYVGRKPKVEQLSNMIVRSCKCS
Transforming growth factor beta-1 proprotein/Mothers against decapentaplegic homolog 3 (Mus musculus), sequence (Q8BUN5 2-425 partner limits assumed): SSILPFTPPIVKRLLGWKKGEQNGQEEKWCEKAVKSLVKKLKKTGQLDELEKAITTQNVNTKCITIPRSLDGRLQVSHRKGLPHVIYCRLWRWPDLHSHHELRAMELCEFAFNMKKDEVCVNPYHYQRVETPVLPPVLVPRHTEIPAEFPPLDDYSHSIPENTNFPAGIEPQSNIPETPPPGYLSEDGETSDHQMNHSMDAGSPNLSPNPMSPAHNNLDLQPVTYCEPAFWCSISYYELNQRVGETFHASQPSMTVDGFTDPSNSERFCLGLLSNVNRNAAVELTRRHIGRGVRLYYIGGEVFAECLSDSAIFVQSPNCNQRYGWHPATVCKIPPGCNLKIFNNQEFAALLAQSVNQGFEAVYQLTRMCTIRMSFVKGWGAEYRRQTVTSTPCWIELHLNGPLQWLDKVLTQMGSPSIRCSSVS

Another test deals with Staphylococcus aureus. Kind of test: Antibacterial activity against Staphylococcus aureus assessed as bacterial growth inhibition incubated for 24 hrs. Type of test: functional.
The subject of a further test is Escherichia coli. As to the kind of experiment: Antibacterial activity against Escherichia coli assessed as bacterial growth inhibition incubated for 24 hrs. The test is classed as functional.
Another test relates to Bacillus subtilis. Kind of test: Antibacterial activity against Bacillus subtilis assessed as bacterial growth inhibition incubated for 24 hrs. Type of test: functional.
Test [2] deals with Mus musculus. As to the kind of experiment: Antifibrotic activity against BLM-induced pulmonary fibrosis in C57BL/6 mouse model assessed as improvement in pulmonary alveolar structure damage at 100 mg/kg, po administered once daily starting from day 7 post BLM treatment and measured on day 14 by H and E staining based analysis. As to conditions: time 14.0 day. Type of test: functional, organism-based.

Test [3] concerns Mus musculus. As to the kind of experiment: Antifibrotic activity against BLM-induced pulmonary fibrosis in C57BL/6 mouse model assessed as reduction in fibrosis region at 100 mg/kg, po administered once daily starting from day 7 post BLM treatment and measured on day 14 by hematoxylin-eosin and Masson trichrome staining based analysis relative to control. The test is classed as functional, organism-based. As to conditions: time 14.0 day.

In brackets after ≈: the same amount, converted by molar mass. Activity calls are given as the source filed them. No cut-off for these calls is given here.

In the case of `C=C[C@]1(C)C[C@@H](O)[C@]2(C)[C@H](C)CC[C@]3(C/C(=C\C4CCCCC4)C(=O)[C@H]32)[C@@H](C)[C@@H]1O`, in test [1], the Activity is 32.4%.
With `C=C[C@]1(C)C[C@@H](O)[C@]2(C)[C@H](C)CC[C@]3(C/C(=C\c4ccc(C(=O)NC5CCN(C)CC5)cc4)C(=O)[C@H]32)[C@@H](C)[C@@H]1O`, the Activity in test [1] was -9.93%.
The same measure, in the same setting: then `C=C[C@]1(C)C[C@@H](O)[C@]2(C)[C@H](C)CC[C@]3(C/C(=C\c4ccc(F)cc4)C(=O)[C@H]32)[C@@H](C)[C@@H]1O`, with 35.3%; and `C=C[C@]1(C)C[C@@H](O)[C@]2(C)[C@H](C)CC[C@]3(C/C(=C\c4ccc(SC)cc4)C(=O)[C@H]32)[C@@H](C)[C@@H]1O`, with 46%; and `C=C[C@]1(C)C[C@@H](O)[C@]2(C)[C@H](C)CC[C@]3(C/C(=C\C(C)(C)C)C(=O)[C@H]32)[C@@H](C)[C@@H]1O`, with 6.58%.
The same measure, in the same setting: to `C=C[C@]1(C)C[C@@H](O)[C@]2(C)[C@H](C)CC[C@]3(C/C(=C\CC(C)(C)C)C(=O)[C@H]32)[C@@H](C)[C@@H]1O` belongs 18.5%.
`C=C[C@]1(C)C[C@@H](O)[C@]2(C)[C@H](C)CC[C@]3(C/C(=C\c4ccc(C(=O)O)cc4)C(=O)[C@H]32)[C@@H](C)[C@@H]1O`: in test [1], the Activity turned out to be 41.4%. Besides, the MIC with Staphylococcus aureus, in the test on Escherichia coli and in the test with Bacillus subtilis was over 1000 µg/mL in each case.
Regarding `C=C[C@]1(C)C[C@@H](O)[C@]2(C)[C@H](C)CC[C@]3(C/C(=C\c4ccco4)C(=O)[C@H]32)[C@@H](C)[C@@H]1O`, the Activity in test [1] was 31%.
Still for that read-out and setting: then `C=C[C@]1(C)C[C@@H](O)[C@]2(C)[C@H](C)CC[C@]3(C/C(=C\c4cccnc4)C(=O)[C@H]32)[C@@H](C)[C@@H]1O`, with 0.29%; and `C=C[C@]1(C)C[C@@H](O)[C@]2(C)[C@H](C)CC[C@]3(C/C(=C\c4ccc(C(C)(C)C)cc4)C(=O)[C@H]32)[C@@H](C)[C@@H]1O`, with 13.3%.
For `C=C[C@]1(C)C[C@@H](O)[C@]2(C)[C@H](C)CC[C@]3(C/C(=C\c4ccc(C(=O)N5CCCCC5)cc4)C(=O)[C@H]32)[C@@H](C)[C@@H]1O`, the Activity in test [1] is -16.7%.
Same read-out and setting: to `C=C[C@]1(C)C[C@@H](O)[C@]2(C)[C@H](C)CC[C@]3(C/C(=C\c4ccc5ccccc5c4)C(=O)[C@H]32)[C@@H](C)[C@@H]1O` belongs 26.5%.
Regarding `C=C[C@]1(C)C[C@@H](O)[C@]2(C)[C@H](C)CC[C@]3(C/C(=C\CCC)C(=O)[C@H]32)[C@@H](C)[C@@H]1O`, in test [1], the Activity came out at 0.45%.
Same read-out and setting: then `C=C[C@]1(C)C[C@@H](O)[C@]2(C)[C@H](C)CC[C@]3(C/C(=C\c4ncccc4F)C(=O)[C@H]32)[C@@H](C)[C@@H]1O`, with 13.5%; and `C=C[C@]1(C)C[C@@H](O)[C@]2(C)[C@H](C)CC[C@]3(C/C(=C\c4ccc(OC)cc4)C(=O)[C@H]32)[C@@H](C)[C@@H]1O`, with 21%.
Take `C=C[C@]1(C)C[C@@H](O)[C@]2(C)[C@H](C)CC[C@]3(C/C(=C\c4c(C)cc(C)cc4C)C(=O)[C@H]32)[C@@H](C)[C@@H]1O`: the Activity in test [1] was determined as 42.5%.
On the same count and under the same terms, then `C=C[C@]1(C)C[C@@H](O)[C@]2(C)[C@H](C)CC[C@]3(C/C(=C\c4cccc(C(=O)O)c4)C(=O)[C@H]32)[C@@H](C)[C@@H]1O`, with -0.41%; and `C=C[C@]1(C)C[C@@H](O)[C@]2(C)[C@H](C)CC[C@]3(C/C(=C\c4cccc(C(=O)NC5CCCCC5)c4)C(=O)[C@H]32)[C@@H](C)[C@@H]1O`, with -3.36%; and `NC(=O)c1ccc(-c2nc(-c3ccccn3)c(-c3ccc4c(c3)OCO4)[nH]2)cc1`, with 98.9%.
As for `C=C[C@]1(C)C[C@@H](O)[C@]2(C)[C@H](C)CC[C@]3(C/C(=C\c4cccc(C(=O)N5CCN(C)CC5)c4)C(=O)[C@H]32)[C@@H](C)[C@@H]1O`, the Activity in test [1] came to 7.27%.
With `C=C[C@]1(C)C[C@@H](O)[C@]2(C)[C@H](C)CC[C@]3(C/C(=C\c4ccc(C(=O)N5CCN(C)CC5)cc4)C(=O)[C@H]32)[C@@H](C)[C@@H]1O`, in test [1], the Activity was found to be 40.3%. Further, the MIC in the test with Staphylococcus aureus, in the test with Escherichia coli and with Bacillus subtilis was over 1000 µg/mL in each case.
`C=C[C@]1(C)C[C@@H](O)[C@]2(C)[C@H](C)CC[C@]3(C/C(=C\c4ccc(C(=O)N5CCOCC5)cc4)C(=O)[C@H]32)[C@@H](C)[C@@H]1O`: the Activity in test [1] is -19.9%.
On the same count and under the same terms, then `C=C[C@]1(C)C[C@@H](O)[C@]2(C)[C@H](C)CC[C@]3(C/C(=C\CCCC)C(=O)[C@H]32)[C@@H](C)[C@@H]1O`, with 16.9%.
As to `C=C[C@]1(C)C[C@@H](OC(=O)CO)[C@]2(C)[C@H](C)CC[C@]3(CCC(=O)[C@H]32)[C@@H](C)[C@@H]1O` [PLEUROMULIN], the MIC with Staphylococcus aureus is 5 µg/mL (≈ 13.2 µM); with Escherichia coli, 10 µg/mL (≈ 26.4 µM); in the test with Bacillus subtilis, 100 µg/mL (≈ 264 µM).
Take `C=C[C@]1(C)C[C@@H](O)[C@]2(C)[C@H](C)CC[C@]3(C/C(=C\c4ccccc4N4CCOCC4)C(=O)[C@H]32)[C@@H](C)[C@@H]1O`: the Activity in test [1] came out at 20.6%.
Still for that read-out and setting: then `C=C[C@]1(C)C[C@@H](O)[C@]2(C)[C@H](C)CC[C@]3(C/C(=C\c4ccc(C(F)(F)F)cc4)C(=O)[C@H]32)[C@@H](C)[C@@H]1O`, with 35.5%; and `C=C[C@]1(C)C[C@@H](O)[C@]2(C)[C@H](C)CC[C@]3(C/C(=C\c4ccc(Cl)cc4)C(=O)[C@H]32)[C@@H](C)[C@@H]1O`, with 48.9%; and `C=C[C@]1(C)C[C@@H](O)[C@]2(C)[C@H](C)CC[C@]3(C/C(=C\c4cccc(C)c4)C(=O)[C@H]32)[C@@H](C)[C@@H]1O`, with 0.99%.
Still for that read-out and setting: to `C=C[C@]1(C)C[C@@H](O)[C@]2(C)[C@H](C)CC[C@]3(C/C(=C\c4ccc(C(=O)N(C)C)cc4)C(=O)[C@H]32)[C@@H](C)[C@@H]1O` belongs -20.3%; to `C=C[C@]1(C)C[C@@H](O)[C@]2(C)[C@H](C)CC[C@]3(C/C(=C\c4ccc(C)cc4)C(=O)[C@H]32)[C@@H](C)[C@@H]1O`, 32.8%; to `C=C[C@]1(C)C[C@@H](O)[C@]2(C)[C@H](C)CC[C@]3(C/C(=C\C=C\c4ccccc4)C(=O)[C@H]32)[C@@H](C)[C@@H]1O`, 34%.
Same read-out and setting: to `C=C[C@]1(C)C[C@@H](O)[C@]2(C)[C@H](C)CC[C@]3(C/C(=C\c4ccc(C(=O)Nc5ccccc5)cc4)C(=O)[C@H]32)[C@@H](C)[C@@H]1O` belongs -27.7%; to `C=C[C@]1(C)C[C@@H](O)[C@]2(C)[C@H](C)CC[C@]3(C/C(=C\c4ccccc4)C(=O)[C@H]32)[C@@H](C)[C@@H]1O`, 15.2%.
For the compound `Cc1ccc(=O)n(-c2ccccc2)c1`, the result in the test on Mus musculus [2] and in the test on Mus musculus [3] was Active.
With `C=C[C@]1(C)C[C@@H](O)[C@]2(C)[C@H](C)CC[C@]3(C/C(=C\C4CC4)C(=O)[C@H]32)[C@@H](C)[C@@H]1O`, in test [1], the Activity was -10.8%.
The same measure, in the same setting: then `C=C[C@]1(C)C[C@@H](O)[C@]2(C)[C@H](C)CC[C@]3(C/C(=C\c4ccccc4C)C(=O)[C@H]32)[C@@H](C)[C@@H]1O`, with 38.8%.
Turning to `C=C[C@]1(C)C[C@@H](O)[C@]2(C)[C@H](C)CC[C@]3(C/C(=C\C4CCCC4)C(=O)[C@H]32)[C@@H](C)[C@@H]1O`, the Activity in test [1] was found to be 30.6%.
